From patent US8178678B2, “Bis-quaternary ammonium salts and methods for modulating neuronal nicotinic acetylcholine receptors” (University of Kentucky Research Foundation, priority 2006, dated 2012)
Read-outs that look alike come from different tables or passages of the source.

What was measured:
[1] = molecular target: T1, Rat Striatal Nicotinic Receptors ([^3H]MLA binding sites; α7) (Rattus norvegicus, UniProt Q05941); test: Inhibition of [^3H]MLA (methyllycaconitine) binding; settings: for Ki: full concentration effect, read-out: [^3H]MLA binding, Ki; for inhibition at 0.1 µM: read-out: [^3H]MLA binding, % inhibition
T1 construct: Whole brain, excluding cortex and cerebellum, was homogenized in 20 vol of ice-cold buffer; from tissue; host or cells: rat brain membranes (whole brain excluding cortex and cerebellum)
T1 sequence (Q05941 23-502): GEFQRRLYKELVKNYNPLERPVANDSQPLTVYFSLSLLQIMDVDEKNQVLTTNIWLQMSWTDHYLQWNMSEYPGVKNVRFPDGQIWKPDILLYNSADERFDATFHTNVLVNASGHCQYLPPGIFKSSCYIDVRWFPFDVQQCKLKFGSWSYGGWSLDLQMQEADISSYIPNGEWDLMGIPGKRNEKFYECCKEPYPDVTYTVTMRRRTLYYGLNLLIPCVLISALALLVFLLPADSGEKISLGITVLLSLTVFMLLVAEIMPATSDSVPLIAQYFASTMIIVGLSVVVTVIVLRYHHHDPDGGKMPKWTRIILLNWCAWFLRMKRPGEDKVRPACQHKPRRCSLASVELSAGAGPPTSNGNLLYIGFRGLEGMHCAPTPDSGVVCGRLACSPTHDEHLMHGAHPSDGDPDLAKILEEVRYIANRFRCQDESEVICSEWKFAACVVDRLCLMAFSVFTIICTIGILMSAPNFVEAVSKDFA
Summary of the method: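 Rat brain membranes were washed by repeated centrifugation at 25,000 g, with a 10 min incubation at 37° C. in between. Samples of 250 μl, containing 100-140 μg of membrane protein, 3 nM [^3H]-methyllycaconitine and test analog in 50 mM Tris assay buffer, were incubated in 96-well plates for 60 min at room temperature. Nonspecific binding was defined with 10 μM S-nicotine. Bound radioactivity was collected on polyethylenimine-soaked GF/B filter plates and counted on a TopCount.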

[2] = test system: nicotinic receptors mediating S-nicotine-evoked [^3H]DA release in rat striatal slices; test: Inhibition of S-nicotine-evoked [^3H]dopamine release from superfused rat striatal slices; format: cell-based; settings: for inhibition at 0.1 µM: 1 h, read-out: [^3H]DA release, % inhibition of S-nicotine-evoked release
Method: Rat striatal slices (500 μm thickness, 6-8 mg wet weight) were incubated for 30 minutes in Krebs buffer (118 mM NaCl, 4.7 mM KCl, 1.2 mM MgCl2, 1.0 mM NaH2PO4, 1.3 mM CaCl2, 11.1 mM glucose, 25 mM NaHCO3, 0.11 mM L-ascorbic acid, and 0.004 mM disodium EDTA; pH 7.4, and saturated with 95% O2/5% CO2) in a metabolic shaker at 34° C. Slices were rinsed with 15 mL of fresh buffer and incubated for an additional 30 minutes in fresh buffer containing 0.1 μM [^3H]dopamine (DA; 6 slices/3 mL). Subsequently, slices were rinsed with 15 mL of fresh buffer and transferred to a glass superfusion chamber. Slices were superfused (1.0 mL/min) for 60 minutes with Krebs buffer containing nomifensine (10 μM) and pargyline (10 μM) and maintained at 34° C., pH 7.4, with continual aeration (95% O2/5% CO2). Two five minute samples (5 mL each) were collected to determine basal outflow of [^3H]DA. The bis-quaternary ammonium analogs were added to the superfusion buffer after the collection of the second sample and remained in the buffer until 12 consecutive five minute samples were collected. Subsequently, S-nicotine (NIC; 10 μM) was added to the buffer and an additional 12 consecutive five minute samples were collected. At the end of the experiment, each slice was solubilized and the [^3H] content of the tissue determined.
Radioactivity in the superfusate and tissue samples was determined by liquid scintillation spectroscopy. Fractional release for tritium collected in each sample was divided by the total tritium present in the tissue at the time of sample collection and was expressed as a percentage of total tritium. Basal [^3H]outflow was calculated from the average of the tritium collected in the two five minute samples just before addition of the quaternary analog. The sum of the increase in collected tritium resulting from either exposure to the test compound or exposure to S-nicotine in the absence and presence of the test compound equaled total [^3H]overflow. [^3H]Overflow was calculated by subtracting the [^3H]outflow during an equivalent period of prestimulation from the values in samples collected during and after drug exposure. Inasmuch as the radiolabelled compounds were not separated and identified, the tritium collected in superfusate is referred to as either [3H]outflow or [^3H]overflow, rather than as [^3H]DA. [^3H]Overflow primarily represents [^3H]DA in the presence of nomifensine and pargyline in the superfusion buffer.
The bis-quaternary ammonium analogs were also evaluated for their ability to inhibit NIC evoked [^3H]DA release. In these experiments, the striatal slices were superfused for 60 minutes with 100 nM concentration of the quaternary analogs prior to NIC (10 μM) exposure. Antagonist activity was evaluated by comparing the NIC-evoked [^3 H]overflow in the absence and presence of the analogs. The relative order of potency of the quaternary analogs for inhibition of NIC-evoked [^3H]DA release from rat striatal slices is illustrated in Table 1.
^aData are % inhibition at 100 nM concentration of the bis-quaternary ammonium analogs for at least 1-3 independent experiments; with the exception of when a Ki value in μM is provided, in which case a full concentration effect was evaluated. Specific binding in the [^3H]NIC binding assay is calculated as the difference between the total binding of 3 nM [^3H]NIC and nonspecific binding in the presence of 10 μM cold cytisine. Specific binding for the [^3H]MLA binding assay is calculated as the difference between the total binding of […] [^3H]MLA to the receptors alone and its nonspecific binding in the presence of […] cold S-nicotine. Analog-induced inhibition of S-nicotine-evoked [^3H]DA release is calculated as a percent of that in the absence of the bis-quaternary ammonium analog.

[3] = molecular target: T2, Rat Striatal Nicotinic Receptors ([^3H]NIC binding sites; α4β2) (Rattus norvegicus, UniProt P09483+P12390); test: Inhibition of [^3H]NIC binding; settings: for Ki: full concentration effect, 3 nM [^3H]NIC, nonspecific 10 μM cytisine, rat brain membranes, read-out: [^3H]NIC binding, Ki
T2 construct: Whole brain, excluding cortex and cerebellum, was homogenized in 20 vol of ice-cold buffer; from tissue; host or cells: rat brain membranes (whole brain excluding cortex and cerebellum)
T2 sequence (P09483 31-630): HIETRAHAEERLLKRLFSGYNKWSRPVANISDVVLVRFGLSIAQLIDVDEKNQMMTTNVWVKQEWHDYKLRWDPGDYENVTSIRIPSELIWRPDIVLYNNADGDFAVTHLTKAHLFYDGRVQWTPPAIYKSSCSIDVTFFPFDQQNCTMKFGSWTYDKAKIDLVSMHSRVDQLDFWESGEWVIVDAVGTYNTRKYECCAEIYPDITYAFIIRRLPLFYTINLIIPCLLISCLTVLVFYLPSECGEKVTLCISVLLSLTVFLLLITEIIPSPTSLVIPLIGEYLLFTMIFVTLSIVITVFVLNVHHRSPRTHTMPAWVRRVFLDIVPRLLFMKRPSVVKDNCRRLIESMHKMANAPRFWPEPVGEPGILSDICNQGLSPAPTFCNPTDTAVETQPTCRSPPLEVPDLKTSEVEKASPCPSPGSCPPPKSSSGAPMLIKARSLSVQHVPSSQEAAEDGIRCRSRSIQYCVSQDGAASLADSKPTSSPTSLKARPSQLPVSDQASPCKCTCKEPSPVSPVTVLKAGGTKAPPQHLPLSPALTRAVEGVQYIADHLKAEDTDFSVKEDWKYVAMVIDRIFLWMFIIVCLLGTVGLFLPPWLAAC
T2 sequence (P12390 25-500): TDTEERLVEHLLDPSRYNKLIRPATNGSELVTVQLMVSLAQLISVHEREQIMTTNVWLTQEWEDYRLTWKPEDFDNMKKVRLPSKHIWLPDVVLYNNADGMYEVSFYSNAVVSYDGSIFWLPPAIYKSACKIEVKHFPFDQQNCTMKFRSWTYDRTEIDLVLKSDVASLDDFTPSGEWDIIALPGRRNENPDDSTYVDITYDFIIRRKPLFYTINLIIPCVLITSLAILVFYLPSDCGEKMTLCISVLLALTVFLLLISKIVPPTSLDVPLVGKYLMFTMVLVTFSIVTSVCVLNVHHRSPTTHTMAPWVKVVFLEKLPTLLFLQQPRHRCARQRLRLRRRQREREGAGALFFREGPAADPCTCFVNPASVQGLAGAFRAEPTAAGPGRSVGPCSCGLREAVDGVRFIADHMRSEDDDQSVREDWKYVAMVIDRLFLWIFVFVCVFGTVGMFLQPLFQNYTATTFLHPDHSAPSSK

[4] = molecular target: T2, Rat Striatal Nicotinic Receptors ([^3H]NIC binding sites; α4β2); test: Inhibition of [^3H]NIC binding; settings: 100 nM analog, 3 nM [^3H]NIC, nonspecific 10 μM cytisine, rat brain membranes; for inhibition at 0.1 µM: 1 h
[5] = [^3H]MLA, nonspecific S-nicotine, rat brain membranes
[6] = 100 nM analog, [^3H]MLA, nonspecific S-nicotine, rat brain membranes
[7] = 100 nM analog superfused 60 min before NIC 10 μM, rat striatal slices

## CN1CCC[C@H]1c1ccc[n+](CCCC/C=C\C=C/CCCC[n+]2cccc([C@@H]3CCCN3C)c2)c1 [Example 1, cis-cis-N,N′-(dodeca-5,7-diene-1,12-diyl)-bis-[3-(2′-S-1-methyl-pyrrolidin-2-yl)-pyridinium]dibromide]
[1]; [5]
  Ki: > 100 µM
[2]; Rattus norvegicus
  inhibition at 0.1 µM: 11%
[3]
  Ki: 1.09 µM

## Cc1cccc[n+]1CCCC/C=C\C=C/CCCC[n+]1ccccc1C [Example 2, cis-cis-N,N′-(dodeca-5,7-diene-1,12-diyl)-bis-(2-methyl-pyridinium)dibromide]
[1]
  inhibition at 0.1 µM: 4.2%
[2]; Rattus norvegicus
  inhibition at 0.1 µM: 0%
[3]; 1 h, read-out: [^3H]NIC binding, % inhibition
  inhibition at 0.1 µM: 11%

## C(/C=C\CCCC[n+]1cccc2c1CCCC2)=C/CCCC[n+]1cccc2c1CCCC2 [Example 5, cis-cis-N,N′-(dodeca-5,7-diene-1,12-diyl)-bis-(5,6,7,8-tetrahydro-quinolinium)dibromide]
[1]; [5]
  Ki: 7.64 µM
[3]
  Ki: 3.63 µM

## C(/C=C\CCCC[n+]1ccc2c(c1)CCCC2)=C/CCCC[n+]1ccc2c(c1)CCCC2 [Example 6, cis-cis-N,N′-(dodeca-5,7-diene-1,12-diyl)-bis-(5,6,7,8-tetrahydro-isoquinolinium)dibromide]
[1]; [5]
  Ki: 3 µM
[3]
  Ki: 5.84 µM

## c1cc2c([n+](CCCCc3ccc(CCCC[n+]4cccc5c4CCCC5)cc3)c1)CCCC2 [Example 15, N,N′-[1,4-phenylenedi-(4-butanyl)]-bis-(5,6,7,8-tetrahydroquinolinium)dibromide]
[1]; [5]
  Ki: 7.68 µM
[3]
  Ki: 12 µM

## c1cc(CCCC[n+]2ccc3c(c2)CCCC3)ccc1CCCC[n+]1ccc2c(c1)CCCC2 [Example 16, N,N′-[1,4-phenylenedi-(4-butanyl)]-bis-(5,6,7,8-tetrahydroisoquinolinium)dibromide]
[1]; [5]
  Ki: 15.3 µM
[3]
  Ki: > 100 µM

## Cc1cccc[n+]1CCCCCc1cccc(CCCCC[n+]2ccccc2C)c1 [Example 62, 1,3-bis-[5-(2-methyl-pyridinium)-pentyl]-benzene dibromide]
[1]; [6]
  inhibition at 0.1 µM: 0%
[2]; [7]
  inhibition at 0.1 µM: 62%
[4]
  inhibition at 0.1 µM: 7.2%

## Cc1ccc[n+](CCCCCc2cccc(CCCCC[n+]3cccc(C)c3)c2)c1 [Example 63, 1,3-bis-[5-(3-methyl-pyridinium)-pentyl]-benzene dibromide]
[1]; [6]
  inhibition at 0.1 µM: 6.24%
[2]; [7]
  inhibition at 0.1 µM: 45%
[4]
  inhibition at 0.1 µM: 3.5%

## Cc1cc[n+](CCCCCc2cccc(CCCCC[n+]3ccc(C)cc3)c2)cc1 [Example 64, 1,3-bis-[5-(4-methyl-pyridinium)-pentyl]-benzene dibromide]
[1]; [6]
  inhibition at 0.1 µM: 3.5%
[2]; [7]
  inhibition at 0.1 µM: 27%
[4]
  inhibition at 0.1 µM: 4.6%

## Cc1cc[n+](CCCCCc2cccc(CCCCC[n+]3ccc(C)cc3C)c2)c(C)c1 [Example 65, 1,3-bis-[5-(2,4-dimethyl-pyridinium)-pentyl]-benzene dibromide]
[1]; [6]
  inhibition at 0.1 µM: 5.6%
[2]; [7]
  inhibition at 0.1 µM: 26%
[4]
  inhibition at 0.1 µM: 0.5%

## Cc1cc[n+](CCCCCc2cccc(CCCCC[n+]3ccc(C)c(C)c3)c2)cc1C [Example 66, 1,3-bis-[5-(3,4dimethyl-pyridinium)-pentyl]-benzene dibromide]
[1]; [6]
  inhibition at 0.1 µM: 7%
[2]; [7]
  inhibition at 0.1 µM: 35%
[4]
  inhibition at 0.1 µM: 10.5%

## Cc1cc(C)c[n+](CCCCCc2cccc(CCCCC[n+]3cc(C)cc(C)c3)c2)c1 [Example 67, 1,3-bis-[5-(3,5-dimethyl-pyridinium)-pentyl]-benzene dibromide]
[1]; [6]
  inhibition at 0.1 µM: 1.4%
[2]; [7]
  inhibition at 0.1 µM: 34%
[4]
  inhibition at 0.1 µM: 4.8%

## c1cc(CCCCC[n+]2cccc3ccccc32)cc(CCCCC[n+]2cccc3ccccc32)c1 [Example 68, 1,3-bis-(5-quinolinium-pentyl)-benzene dibromide]
[1]; [6]
  inhibition at 0.1 µM: 14%
[2]; [7]
  inhibition at 0.1 µM: 16%
[4]
  inhibition at 0.1 µM: 8.3%

## c1cc(CCCCC[n+]2ccc3ccccc3c2)cc(CCCCC[n+]2ccc3ccccc3c2)c1 [Example 69, 1,3-bis-(5-isoquinolinium-pentyl)-benzene dibromide]
[1]; [6]
  inhibition at 0.1 µM: 5.2%
[2]; [7]
  inhibition at 0.1 µM: 0%
[4]
  inhibition at 0.1 µM: 8.8%

## Cc1ccc[n+](CCCc2ccc(-c3ccc(CCC[n+]4cccc(C)c4)cc3)cc2)c1 [Example 78, N,N′-[(1,1′-biphenyl)-4,4′-di-(3-propanyl)]-bis-(3-methylpyridinium)dibromide]
[1]; [6]
  inhibition at 0.1 µM: 5.5%
[2]; [7]
  inhibition at 0.1 µM: 44%
[4]
  inhibition at 0.1 µM: 0%

## Cc1ccc[n+](CCOCCOCCOCC[n+]2cccc(C)c2)c1 [Example 82, N,N′-{2,2′-[oxybis-(2,1-ethandiyloxy)]bis-ethyl}-bis(3-methylpyridinium)dichloride]
[1]; [6]
  inhibition at 0.1 µM: 13%
[2]; [7]
  inhibition at 0.1 µM: 58%
[4]
  inhibition at 0.1 µM: 17%

## Cc1cc[n+](CCOCCOCCOCC[n+]2ccc(C)cc2)cc1 [Example 83, N,N′-{2,2′-[oxybis-(2,1-ethandiyloxy)]bis-ethyl}-bis(4-methylpyridinium)dichloride]
[1]; [6]
  inhibition at 0.1 µM: 7%
[2]; [7]
  inhibition at 0.1 µM: 53%
[4]
  inhibition at 0.1 µM: 15%

## C(C#CCCCC[n+]1ccc2c(c1)CCCC2)#CCCCC[n+]1ccc2c(c1)CCCC2 [Example 96, N,N′-(5,7-dodecadiyn-1,12-diyl)-bis-(5,6,7,8-tetrahydroisoquinolinium)dichloride]
[1]; [5]
  Ki: 5.36 µM
[3]
  Ki: 11.3 µM

## Cc1cc[n+](CCC#Cc2ccc(C#CCC[n+]3ccc(C)c(C)c3)cc2)cc1C [Example 100, N,N′-[(1,4-phenylene)-bis-(4-butynyl)]-bis-(3,4-dimethyl-pyridinium)dibromide]
[1]; [6]
  inhibition at 0.1 µM: 0%
[2]; [7]
  inhibition at 0.1 µM: 31%
[4]
  inhibition at 0.1 µM: 3%

## Cc1cc(C)c[n+](CCC#Cc2ccc(C#CCC[n+]3cc(C)cc(C)c3)cc2)c1 [Example 101, N,N′-[(1,4-phenylene)-bis-(4-butynyl)]-bis-(3,5-dimethyl-pyridinium)dibromide]
[1]; [6]
  inhibition at 0.1 µM: 0%
[2]; [7]
  inhibition at 0.1 µM: 14%
[4]
  inhibition at 0.1 µM: 0%

## N,N′-[(1,1′-biphenyl)-4,4′-di-(3-propanyl)]-bis-[3-(2′-S-1-methyl-pyrrolidin-2-yl)-pyridinium]dibromide [Example 70]
[1]; [6]
  [^3H]MLA binding, % inhibition: 11%
[2]; [7]
  [^3H]DA release, % inhibition of S-nicotine-evoked release: 8%
[4]
  [^3H]NIC binding, % inhibition: 12%
